# Results from patent publication US20070071780A1, “Personal care composition comprising a perfume booster accord” (priority 2005, published 2007).
# System: human nose
# Assay: Odor intensity evaluation by panelists and Human Recognition Slope Factor (HRSF) calculation in DPG
# Settings: average of 25 panelists; in DPG; Concentration (X) 0.0004
# Description: The Human Recognition Slope Factor (HRSF) is a tool in choosing the most efficient high odor value materials to create perfume booster accords. […] The higher the number, the more efficient the material will be.
# The HRSF identifies the behavior of perfume materials through the relevant range of concentrations in a given product. The calculation process of the HRSF also defines the concentration where the high odor value material reaches its maximum intensity in a given media.
# The HRSF is determined by the following calculations: HRSF=Ii/xi wherein: HRSF=Human Recognition Slope Factor; Ii is the maximum intensity that a high odor value material delivers in a given media; and xi is the lowest concentration of the high odor value material to reach maximum intensity.
# The value of Ii and xi are calculated using the following two equations. The first equation (I) describes the intensity of a high odor value material across a broad range of concentrations. The second equation (VI) allows one to find the maximum concentration when both mathematical equations reach the same intensity value. I=a/(1+(x/c)ˆb) (I) wherein: I is the Intensity of the high odor value material; x is the concentration of the material; and a, b, and c are experimental constants for each high odor value material.
# The experimental constants of “a, b, and c” are generated by performing a non linear regression analysis using commercially available software. One software package useful in performing the non linear regression analysis is GraphPad Prism 4 for Windows, available from GraphPad Software, Inc., San Diego Calif.
# Odor evaluations of each raw material are conducted among at least 25 people. Each material is diluted to a given concentration, and panelists are requested to grade the smell using a numeric scale (Low: 0-15, Slight: 16-30, Moderate: 31-50, Strong: 51-70, Very Strong: 71-up). Internal controls containing Benzyl salicylate, Citronellol and Ethyl 2 Methyl Butyrate are used to define the standard intensity for each range.
# An illustration of how the non linear regression analysis works is described below. In the following example, the material Alpha Damascone was used for illustrative purposes. The experimental data from 25 panelists indicate that the average value for each observation of Alpha Damascone in DPG is as follows:
# The goal of the software package is to minimize the sum of the squares of the vertical distances of the points from the curve. The software prompts the user to perform the following steps to run an iterative process that allows one to find the values of a, b, and c. The R^2 factor (shown below) will indicate if the objective of minimizing the sum of the squares of the vertical distances of the points from the curve was achieved. The closer the R^2 factor is to 1.0, the better the “best-fit values” will be.
# The software generates the curve defined by the initial values, calculates the sum-of-squares (the sum of the squares of the vertical distances of the points from the curve), adjusts the variables to make the curve come closer to the data points, adjusts the variables again so that the curve comes even closer to the points, keeps adjusting the variables until the adjustments make virtually no difference in the sum-of-squares and reports the best-fit results.
# The “best fit values” are the “a, b, and c” values used in all the equations described herein. Once the “a, b, and c” values are determined, proceed with the following equations.
# By definition, the curve that describes that Intensity and its differential curve will meet at the point where a given material delivers the maximum intensity with the minimum mass. Therefore, the next step is to calculate the intersection point by solving the following equation: (ab(xi/c)ˆb)/(x((x/c)ˆb+1)ˆ2=a/(1+(x/c)ˆb) (V)
# Therefore, (ab(xi/c)ˆb)/(xi((xi/c)ˆb+1)ˆ2−a/(1+(xi/c)ˆb)=0 (VI) […]
row,Molecule,Odor Intensity (I)
1,C/C=C\C(=O)C1C(C)=CCCC1(C)C (stereo not drawn) [Alpha Damascone],5

# Same assay, conditions: average of 25 panelists; in DPG; Concentration (X) 0.0022
row,Molecule,Odor Intensity (I)
1,C/C=C\C(=O)C1C(C)=CCCC1(C)C (stereo not drawn) [Alpha Damascone],15

# Same assay, conditions: average of 25 panelists; in DPG; Concentration (X) 0.0032
row,Molecule,Odor Intensity (I)
1,C/C=C\C(=O)C1C(C)=CCCC1(C)C (stereo not drawn) [Alpha Damascone],25

# Same assay, conditions: average of 25 panelists; in DPG; Concentration (X) 0.0044
row,Molecule,Odor Intensity (I)
1,C/C=C\C(=O)C1C(C)=CCCC1(C)C (stereo not drawn) [Alpha Damascone],35

# Same assay, conditions: average of 25 panelists; in DPG; Concentration (X) 0.0072
row,Molecule,Odor Intensity (I)
1,C/C=C\C(=O)C1C(C)=CCCC1(C)C (stereo not drawn) [Alpha Damascone],50

# Same assay, conditions: average of 25 panelists; in DPG; Concentration (X) 0.0092
row,Molecule,Odor Intensity (I)
1,C/C=C\C(=O)C1C(C)=CCCC1(C)C (stereo not drawn) [Alpha Damascone],55

# Same assay, conditions: average of 25 panelists; in DPG; Concentration (X) 0.0170
row,Molecule,Odor Intensity (I)
1,C/C=C\C(=O)C1C(C)=CCCC1(C)C (stereo not drawn) [Alpha Damascone],60

# Same assay, conditions: low hydrophobic media (DPG)
Molecule,HRSF (Human Recognition Slope Factor = Ii/xi),Ii (maximum intensity in a given media),xi (lowest concentration to reach maximum intensity)
"CC(=O)C(C)=CC1C(C)=CCCC1(C)C (stereo not shown) [3-buten-2-one, 3-methyl-4-(2,6,6-trimethyl-2-cyclohexen-1-yl)]","1,204",85.50,0.071
C/C=C\C(=O)C1C(C)=CCCC1(C)C (stereo not drawn) [Alpha Damascone],"2,034",62.86,0.0309
"CC1(C)CCC[C@]2(C)[C@H]3CCO[C@]3(C)CC[C@@H]12 [Ambroxan, (3aR-(3aalpha,5abeta,9aalpha,9bbeta))-dodecahydro-3a,6,6,9a-tetramethyl naphtha(2,1-b)furan]","7,675",68.31,0.0089
"Cc1ccc2c(c1)OCC(=O)CO2 [Calone 1951, Methyl-3,4-dioxy(cylcoacetonyl) benzene]","1,030",71.88,0.0698
CCCCCCCCCC=O [Decyl Aldehyde],"1,098",54.35,0.0495
"CCOC(=O)CC1(C)OCCO1 [Fructone, ethyl methyl dioxolane acetate]","2,243",62.36,0.0278
"CC(=O)/C=C/C1C(C)=CCCC1(C)C (stereo not shown) [Ionone Apha, 3-buten-2-one, 4-(2,6,6-trimethyl-2-cyclohexen-1-yl), (E)]","1,157",91.99,0.0795
"CC(=O)C=CC1=C(C)CCCC1(C)C [Ionone Beta, 4-(2,6,6-Trimethyl-1-cyclohexenyl)-3-butenone-2]","15,451",47.90,0.0031
CCCCCCCCCCCC=O [Lauric Ald],"1,409",67.33,0.0478
CC(=O)OC(C)c1ccccc1 (stereo not shown) [Methyl Phenyl Carbinyl Acetate],756,50.63,0.067
"CC1=CCC(C=CC(C)(C)C(C)O)C1(C)C (stereo not shown) [Polysantol, 3,3-Dimethyl-5-(2,2,3-trimethyl-3-cycloenten-1-yl)-4-penten-2-ol]",690,73.16,0.106
"CCC(C)(O)CCCC(C)C (stereo not shown) [Tetra Hydro linalool, Tetra Hydro 3,7-Dimethyl-1,6-octadien-3-ol]",838,53.69,0.0641
CC(=O)OC1CC2CC1C1CC=CC21 (stereo not shown) [Tricyclo decenyl acetate],"1,379",46.74,0.0339
"CC(=O)OC1CCCCC1C(C)(C)C (stereo not shown) [Verdox, ortho tertiary butyl cyclohexanyl acetate]",998,51.91,0.052
"Hexahydro-4,7methano-1H-inden-5(or 6)-yl propionate [Frutene]",738,80.35,0.1089
Methyl Cedrylone,811,84.44,0.1041
